Key:
Assay type in all cases: in vivo
[1] = system: Myzus persicae; experiment: Myzus persicae (Green peach aphid) sunflower leaf disc spray test; settings: foliar, 144 h, application rate of 200 ppm, sunflower leaf discs, aphid population of mixed ages, mortality after 6 DAT
Method: Myzus persicae (Green peach aphid): Sunflower leaf discs were placed on agar in a 24-well microtiter plate and sprayed with test solutions at an application rate of 200 ppm. After drying, the leaf discs were infested with an aphid population of mixed ages. After an incubation period of 6 DAT, samples were checked for mortality.

[2] = system: Spodoptera littoralis; experiment: Spodoptera littoralis (Egyptian cotton leafworm) cotton leaf disc spray test; settings: foliar, 72 h, application rate of 200 ppm, cotton leaf discs, L1 larvae, mortality, feeding behavior, growth regulation 3 days after treatment
Source text: Spodoptera littoralis (Egyptian cotton leafworm): Cotton leaf discs were placed on agar in a 24-well microtiter plate and sprayed with test solutions at an application rate of 200 ppm. After drying, the leaf discs were infested with 5 L1 larvae. The samples were checked for mortality, feeding behavior, and growth regulation 3 days after treatment (DAT).

[3] = system: Tetranychus urticae; experiment: Tetranychus urticae (Two-spotted spider mite) bean leaf disc spray test; settings: foliar, 192 h, application rate of 200 ppm, bean leaf discs, mite populations of mixed ages, egg, larval and adult mortality 8 days later
Source text: Tetranychus urticae (Two-spotted spider mite): Bean leaf discs on agar in 24-well microtiter plates were sprayed with test solutions at an application rate of 200 ppm. After drying, the leaf discs are infested with mite populations of mixed ages. 8 days later, discs are checked for egg mortality, larval mortality, and adult mortality.

[4] = system: Plutella xylostella; experiment: Plutella xylostella (Diamond back moth) larva test on artificial diet; settings: 144 h, application rate of 200 ppm (concentration in well 18 ppm), L2 larvae, larval mortality and growth regulation after 6 days
Method: Plutella xylostella (Diamond back moth): 24-well microtiter plate (MTP) with artificial diet was treated with test solutions at an application rate of 200 ppm (concentration in well 18 ppm) by pipetting. After drying, the MTP's were infested with L2 larvae (7-12 per well). After an incubation period of 6 days, samples were checked for larval mortality and growth regulation.

[5] = system: Thrips tabaci; experiment: Thrips tabaci (Onion thrips) sunflower leaf disc spray test; settings: foliar, 168 h, application rate of 200 ppm, sunflower leaf discs, population of mixed ages, mortality after 7 days
Method: Thrips tabaci (Onion thrips): Sunflower leaf discs were placed on agar in a 24-well microtiter plate and sprayed with test solutions at an application rate of 200 ppm. […] After an incubation period of 7 days, samples were checked for mortality.

[6] = system: Diabrotica balteata; experiment: Diabrotica balteata (Corn root worm) larva test on artificial diet; settings: 120 h, application rate of 200 ppm (concentration in well 18 ppm), L2 larvae, larval mortality and growth regulation after 5 days
Method: Diabrotica balteata (Corn root worm): A 24-well microtiter plate (MTP) with artificial diet was treated with test solutions at an application rate of 200 ppm (concentration in well 18 ppm) by pipetting. After drying, the MTP's were infested with L2 larvae (6-10 per well). After an incubation period of 5 days, samples were checked for larval mortality and growth regulation.

[7] = system: Heliothis virescens; experiment: Heliothis virescens (Tobacco budworm) egg/larva test on artificial diet; settings: 96 h, application rate of 200 ppm (concentration in well 18 ppm), eggs 0-24 h old on artificial diet, egg mortality, larval mortality, growth regulation after 4 days
Method: Heliothis virescens (Tobacco budworm): Eggs (0-24 h old) were placed in 24-well microtiter plate on artificial diet and treated with test solutions at an application rate of 200 ppm (concentration in well 18 ppm) by pipetting. After an incubation period of 4 days, samples were checked for egg mortality, larval mortality, and growth regulation.

Measured: pest or weed control at 200 ppm

CCCN(C(=O)c1ccc[n+]([O-])c1)c1cccc(C(=O)N(C)c2c(Cl)cc(C(F)(C(F)(F)F)C(F)(F)F)cc2Br)c1F [Compound 1, N′-[3-[[2-bromo-6-chloro-4-[1,1,1,2,3,3,3-heptafluoro-prop-2-yl]phenyl]-N′-methyl-carbamoyl]-2-fluoro-phenyl]-N-propyl-1-oxido-pyridin-1-ium-3-carboxamide]
not listed: [6] | [7]
≥ 80%: all other assays above

CCc1cc(C(F)(C(F)(F)F)C(F)(F)F)cc(Br)c1N(C)C(=O)c1cccc(N(C)C(=O)c2cccnc2)c1F [Compound 2]
≥ 80%: all assays above

Cc1cc(C(F)(C(F)(F)F)C(F)(F)F)cc(Br)c1N(C)C(=O)c1cccc(N(C)C(=O)c2cccnc2)c1F [Compound 3]
not listed: [3]
≥ 80%: all other assays above

CN(C(=O)c1cccnc1)c1cccc(C(=O)Nc2c(Cl)cc(C(F)(C(F)(F)F)C(F)(F)F)cc2Br)c1F [Compound 4]
not listed: [2]
≥ 80%: all other assays above

CN(C(=O)c1ccc[n+]([O-])c1)c1cccc(C(=O)Nc2c(Cl)cc(C(F)(C(F)(F)F)C(F)(F)F)cc2Br)c1F [Compound 5]
not listed: [5]
≥ 80%: all other assays above

CCN(C(=O)c1cccnc1)c1cccc(C(=O)Nc2c(Cl)cc(C(F)(C(F)(F)F)C(F)(F)F)cc2Br)c1F [Compound 6]
≥ 80%: all assays above

CCN(C(=O)c1ccc[n+]([O-])c1)c1cccc(C(=O)Nc2c(Cl)cc(C(F)(C(F)(F)F)C(F)(F)F)cc2Br)c1F [Compound 7]
not listed: [5]
≥ 80%: all other assays above

CCCN(C(=O)c1cccnc1)c1cccc(C(=O)Nc2c(Cl)cc(C(F)(C(F)(F)F)C(F)(F)F)cc2Cl)c1 [Compound 8]
not listed: [3]
≥ 80%: all other assays above

CCCN(C(=O)c1ccc[n+]([O-])c1)c1cccc(C(=O)Nc2c(Cl)cc(C(F)(C(F)(F)F)C(F)(F)F)cc2Cl)c1 [Compound 9]
≥ 80%: [1] | [4] | [7] | [5]

CCN(C(=O)c1cccnc1)c1cccc(C(=O)Nc2c(Br)cc(C(F)(C(F)(F)F)C(F)(F)F)cc2Br)c1F [Compound 11]
≥ 80%: all assays above

CN(C(=O)c1cccnc1)c1cccc(C(=O)Nc2c(Br)cc(C(F)(C(F)(F)F)C(F)(F)F)cc2Br)c1F [Compound 12]
≥ 80%: all assays above

CCN(C(=O)c1ccc[n+]([O-])c1)c1cccc(C(=O)Nc2c(Br)cc(C(F)(C(F)(F)F)C(F)(F)F)cc2Br)c1F [Compound 13]
≥ 80%: all assays above

CN(C(=O)c1cccnc1)c1cccc(C(=O)N(C)c2c(Br)cc(C(F)(C(F)(F)F)C(F)(F)F)cc2Br)c1 [Compound 15]
not listed: [3] | [6]
≥ 80%: all other assays above

CCN(C(=O)c1cccnc1)c1cccc(C(=O)Nc2c(Cl)cc(C(F)(C(F)(F)F)C(F)(F)F)cc2Cl)c1F [Compound 16]
≥ 80%: all assays above

Cc1cc(C(F)(C(F)(F)F)C(F)(F)F)cc(Cl)c1NC(=O)c1cccc(N(C)C(=O)c2cccnc2)c1F [Compound 17]
≥ 80%: all assays above

CCN(C(=O)c1cccnc1)c1cccc(C(=O)Nc2c(C)cc(C(F)(C(F)(F)F)C(F)(F)F)cc2Cl)c1F [Compound 18]
≥ 80%: all assays above
